Target: T1, EP4 receptor (Mus musculus, UniProt P32240)
T1 construct: expressed in transfected cells; host or cells: CHO cells (membrane fraction)
Assay: Receptor-binding experiment using CHO cell membranes expressing prostanoid receptor sub-types (3H-PGE2 displacement)
Conditions: membrane fraction of CHO cells expressing murine EP4; 3H-PGE2 2.5 nM; Ki=IC50/(1+([C]/Kd))
Description: (i) Experiment for Receptor-Binding Using Cells which Express Prostanoid Receptor Sub-Types
According to the method of Sugimoto et al. (J. Biol. Chem., 267, 6463–6466 ([…])), CHO cells which expressed prostanoid receptor sub-types (murine EP1, EP2, EP3α, and EP4 respectively) were prepared and used as membrane authentic samples.
A reaction solution (200 μL) containing the prepared membrane fraction (0.5 mg/ml) and ^3H-PGE2 was incubated at room temperature for an hour. The reaction was terminated with ice cold buffer (3 mL), and the reaction mixture was suction filtrated under reduced pressure through a glass filter (GF/B), on which the binding ^3H-PGE2 was trapped, and the binding radioactivity was measured by means of a liquid scintillator.
The Kd value was obtained from the Scatchard plots (Ann. N.Y. Acad. Sci., 51, 660 (1949)). Non-specific binding was obtained as the binding in the presence of an excess amount (2.5 μM) of unlabelled PGE2. Measurement of the binding inhibition for ^3H-PGE2 with the compounds of the invention was performed by adding ^3H-PGE2 (2.5 nM) and a series of concentrations of the compounds of the invention. In this reaction, the following buffer was used in all cases. • Buffer: 10 mM potassium phosphate (pH6.0), 1 mM EDTA, 10 mM MgCl2 and 0.1M NaCl.
Dissociation constant Ki (μM) of each compounds was calculated from the following equation. […]

T1 sequence (P32240 whole entry): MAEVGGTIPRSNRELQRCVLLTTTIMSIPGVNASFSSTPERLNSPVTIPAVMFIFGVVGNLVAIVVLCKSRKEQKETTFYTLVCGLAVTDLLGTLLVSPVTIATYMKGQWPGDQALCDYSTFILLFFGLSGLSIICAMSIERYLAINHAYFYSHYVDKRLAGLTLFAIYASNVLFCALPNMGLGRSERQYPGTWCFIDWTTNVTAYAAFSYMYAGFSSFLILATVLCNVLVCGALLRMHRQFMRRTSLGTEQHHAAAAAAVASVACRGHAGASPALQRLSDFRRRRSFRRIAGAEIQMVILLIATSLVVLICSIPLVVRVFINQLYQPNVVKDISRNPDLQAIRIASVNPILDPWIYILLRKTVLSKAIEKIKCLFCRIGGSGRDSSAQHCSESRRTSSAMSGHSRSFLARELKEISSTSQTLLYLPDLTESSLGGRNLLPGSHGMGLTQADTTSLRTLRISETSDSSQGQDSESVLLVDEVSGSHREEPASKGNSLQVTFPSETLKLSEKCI

Ki: 6.4 nM
SMILES: Cc1cc(C)cc(C[C@H](O)/C=C/[C@H]2CCC(=O)N2CCc2ccc(C(=O)O)cc2)c1 [Example 5, (15α,13E)-1,6-(1,4-interphenylene)-9-oxo-15-hydroxy-16-(3,5-dimethylphenyl)-2,3,4,5,17,18,19,20-octanol-8-azaprost-13-enoic acid]
